This note sets out measurements from patent US12516038B2, “Inhibitors of antigen presentation by HLA-DR” (Janssen Pharmaceutica NV, priority 2020, dated 2026).

The target of one assay is HLA-DRB1*0401 (Homo sapiens (Human), UniProt P01903+P01911, A100K/A169T/DEL228-266/F76Y/I96L/K127E/L162R/M171V/N62H/P40V/Q125Y/R42H/S133A/S149N/S66Y/V115G/V209L/W38E). The experiment in a line: HLA-DR4 HTRF assay. As to conditions: inhibition of loading of Alexa Fluor 647-labeled Cit-CII peptide onto HLA-DR4 (CLIP cleaved). It is filed as binding. In outline:
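HLA-DRB1*04:01 construct (α/β fused to human Fc, CLIP pre-cleaved by HRV3C overnight at 4° C) at 3 nM was preincubated 45 min with compound and 1 nM anti-Fc-Tb donor, then 40 nM Alexa647-Cit-CII1236-1249 peptide added. After 90 min at 37° C, the 665/620 nm HTRF ratio gave % inhibition; IC50 by nonlinear regression.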
In general terms: In TR-FRET formats the signal depends on donor and acceptor labels being close together.

For assay [1], the system named is HLA-DR4 restricted mouse T cell hybridoma line (DR4.CII.36.8) with HLA-DRB1*04:01-expressing Boleth cells. The experiment in a line: HLA-DR4-restricted peptide-specific T cell-based assay (hybridoma assay). Particulars: inhibition of IL-2 production, CII259-273 peptide presented by Boleth cells, 6 h. Put shortly:
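IC50 values derive from 4-parameter logistic fits of IL-2 AlphaLISA signal over 8-point duplicate titrations. Compound and HLA-DRB1*04:01 Boleth APCs were preincubated 1 h, 37° C., before adding CII259-273-restricted DR4.CII.36.8 hybridoma cells with peptide for 6 h at 37° C., in DMEM/1% FCS.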

As a reminder, the IC50 is the concentration that inhibits the measured activity by half. Low values mean greater potency in that assay, high ones weaker potency in that assay. For the compound `Cc1c(O[C@H](c2ccc(C(N)=O)cc2)c2cccc[n+]2[O-])ccc2c1OCCC2=O` (single isomer, unassigned) [Example 65a, (*R)-2-((4-carbamoylphenyl)((8-methyl-4-oxochroman-7-yl)oxy)methyl)pyridine 1-oxide], the results for the half-maximal inhibitory concentration (IC50) (at HLA-DRB1*0401; in assay [1]) were 30 µM and over 15 µM, respectively.
In the case of `Cc1c(O[C@H](c2ccc(F)cc2)c2ccc(C(N)=O)cc2)ccc2c1OCCC2=O` (single isomer, unassigned) [Example 66b, (*S)-4-((4-Fluorophenyl)((8-methyl-4-oxochroman-7-yl)oxy)methyl)benzamide], the IC50 at HLA-DRB1*0401 was 2.4 µM; in assay [1] (Mus musculus, T-cell) it was over 15 µM.
With `Cc1c(O[C@@H](c2ccc(C(N)=O)cc2)c2cccc(F)c2)ccc2c1OCCC2=O` (single isomer, unassigned) [Example 67b, (*S)-4-((3-Fluorophenyl)((8-methyl-4-oxochroman-7-yl)oxy)methyl)benzamide], the IC50 against HLA-DRB1*0401 was 2.2 µM; in assay [1] (Mus musculus, T-cell), over 15 µM.
Turning to `Cc1c(O[C@@H](c2ccc(C(N)=O)cc2)c2ccccc2F)ccc2c1OCCC2=O` (single isomer, unassigned) [Example 68b, (*S)-4-((2-Fluorophenyl)((8-methyl-4-oxochroman-7-yl)oxy)methyl)benzamide], the IC50 against HLA-DRB1*0401 was 5.4 µM; in assay [1] (Mus musculus, T-cell), over 15 µM.
For `Cc1c(O[C@@H](c2ccccc2)c2ccc(C(N)=O)cc2)ccc2c1OCCC2=O` (single isomer, unassigned) [Example 69b, (*S)-4-(((8-Methyl-4-oxochroman-7-yl)oxy)(phenyl)methyl)benzamide], in that order: 2.1 µM and over 15 µM.
In the case of `Cc1c(O[C@@H](c2ccncc2)c2cccc(CNC(N)=O)c2)ccc2c1OCCC2=O` (single isomer, unassigned) [Example 81a, (*R)-1-(3-(((8-methyl-4-oxochroman-7-yl)oxy)(pyridin-4-yl)methyl)benzyl)urea], the IC50 amounted to 0.69 µM on HLA-DRB1*0401 and 15 µM in assay [1] (Mus musculus, T-cell).
For the compound `COc1cc(C(N)=O)ccc1[C@H](Oc1ccc2c(c1C)OCCC2=O)c1ccncc1` (single isomer, unassigned) [Example 82a, (*R)-3-Methoxy-4-(((8-methyl-4-oxochroman-7-yl)oxy)(pyridin-4-yl)methyl)benzamide], the half-inhibitory concentration (IC50) on HLA-DRB1*0401 is 0.71 µM; in assay [1] (Mus musculus, T-cell) it was over 15 µM.
For `COc1cc(C(N)=O)ccc1[C@@H](Oc1ccc2c(c1C)OCCC2=O)c1ccncc1` (single isomer, unassigned) [Example 82b, (*S)-3-Methoxy-4-(((8-methyl-4-oxochroman-7-yl)oxy)(pyridin-4-yl)methyl)benzamide], in that order: 0.62 µM and 5.7 µM.
Taken in the same sequence, the figures for `CCOc1cc(C(N)=O)ccc1[C@@H](Oc1ccc2c(c1C)OCCC2=O)c1ccncc1` (single isomer, unassigned) [Example 83b, (*S)-3-ethoxy-4-(((8-methyl-4-oxochroman-7-yl)oxy)(pyridin-4-yl)methyl)benzamide] were 0.69 µM and 5 µM.
For `Cc1c(O[C@@H](c2ccc(C(N)=O)cc2)c2ccnc(CCC(=O)O)c2)ccc2c1OCCC2=O` (single isomer, unassigned) [Example 87b], in that order: 0.51 µM and over 15 µM.
As for `Cc1cc2c(c(C)c1O[C@@H](c1ccc(F)cc1)c1ccc(C(N)=O)cc1)OCCC2=O` (single isomer, unassigned) [Example 90a, (*R)-4-(((6,8-dimethyl-4-oxochroman-7-yl)oxy)(4-fluorophenyl)methyl)benzamide], the 50% inhibitory concentration (IC50) against HLA-DRB1*0401 is 0.52 µM; in assay [1] (Mus musculus, T-cell), over 15 µM.
For `Cc1cc2c(c(C)c1O[C@H](c1ccc(F)cc1)c1ccc(C(N)=O)cc1)OCCC2=O` (single isomer, unassigned) [Example 90b, (*S)-4-(((6,8-dimethyl-4-oxochroman-7-yl)oxy)(4-fluorophenyl)methyl)benzamide], in that order: 0.59 µM and 7.4 µM.
For `Cc1c(O[C@H](c2ccc(C(N)=O)cc2)c2ccc(F)c(F)c2)c(F)cc2c1OCCC2=O` (single isomer, unassigned) [Example 91a, (*R)-4-((3,4-difluorophenyl)((6-fluoro-8-methyl-4-oxochroman-7-yl)oxy)methyl)benzamide], in that order: 0.55 µM and 7.8 µM.
Taken in the same sequence, the figures for `Cc1c(O[C@@H](c2ccc(C(N)=O)cc2)c2ccc(F)c(F)c2)c(F)cc2c1OCCC2=O` (single isomer, unassigned) [Example 91b, (*S)-4-((3,4-difluorophenyl)((6-fluoro-8-methyl-4-oxochroman-7-yl)oxy)methyl)benzamide] were 0.35 µM and over 15 µM.
Regarding `Cc1c(O[C@@H](c2ccc(C(N)=O)cc2)c2cccc(C#N)c2)c(F)cc2c1OCCC2=O` (single isomer, unassigned) [Example 92b, (*S)-4-((3-cyanophenyl)((6-fluoro-8-methyl-4-oxochroman-7-yl)oxy)methyl)benzamide], the IC50 against HLA-DRB1*0401 is 0.19 µM; in assay [1] (Mus musculus, T-cell) it was over 15 µM.
Taken in the same sequence, the figures for `Cc1c(O[C@H](c2ccc(C(N)=O)cc2)c2ccc(S(C)(=O)=O)cc2)c(F)cc2c1OCCC2=O` (single isomer, unassigned) [Example 93a, (*R)-4-(((6-fluoro-8-methyl-4-oxochroman-7-yl)oxy)(4-(methylsulfonyl)phenyl)methyl)benzamide] were 0.19 µM and 6 µM.
For `Cc1c(O[C@@H](c2ccc(C(N)=O)cc2)c2ccc(S(C)(=O)=O)cc2)c(F)cc2c1OCCC2=O` (single isomer, unassigned) [Example 93b, (*S)-4-(((6-fluoro-8-methyl-4-oxochroman-7-yl)oxy)(4-(methylsulfonyl)phenyl)methyl)benzamide], in that order: 0.28 µM and 14 µM.
For `Cc1c(O[C@H](c2ccncc2)c2ccc(C(N)=O)c(F)c2)c(F)cc2c1OCCC2=O` (single isomer, unassigned) [Example 95a, (*R)-2-fluoro-4-(((6-fluoro-8-methyl-4-oxochroman-7-yl)oxy)(pyridin-4-yl)methyl)benzamide], in that order: 0.22 µM and 0.23 µM.
On to `Cc1c(O[C@@H](c2ccncc2)c2ccc(C(N)=O)c(F)c2)c(F)cc2c1OCCC2=O` (single isomer, unassigned) [Example 95b, (*S)-2-fluoro-4-(((6-fluoro-8-methyl-4-oxochroman-7-yl)oxy)(pyridin-4-yl)methyl)benzamide], for which the IC50 against HLA-DRB1*0401 amounted to 0.22 µM; in assay [1] (Mus musculus, T-cell), 1.1 µM.
`Cc1c(O[C@H](c2ccncc2)c2cccc(F)c2)c(F)cc2c1OCCC2=O` (single isomer, unassigned) [Example 96a, (*R)-6-fluoro-7-((3-fluorophenyl)(pyridin-4-yl)methoxy)-8-methylchroman-4-one]: the IC50 was determined as 0.3 µM on HLA-DRB1*0401 and 11 µM in assay [1] (Mus musculus, T-cell).
As for `Cc1c(O[C@@H](c2ccncc2)c2cccc(F)c2)c(F)cc2c1OCCC2=O` (single isomer, unassigned) [Example 96b, (*S)-6-fluoro-7-((3-fluorophenyl)(pyridin-4-yl)methoxy)-8-methylchroman-4-one], the 50% inhibitory concentration (IC50) was 0.47 µM at HLA-DRB1*0401 and over 15 µM in assay [1] (Mus musculus, T-cell).
Taken in the same sequence, the figures for `COc1ccc([C@H](Oc2c(F)cc3c(c2C)OCCC3=O)c2ccncc2)cc1F` (single isomer, unassigned) [Example 97a, (*R)-6-fluoro-7-((3-fluoro-4-methoxyphenyl)(pyridin-4-yl)methoxy)-8-methylchroman-4-one] were 0.41 µM and 5.2 µM.
Taken in the same sequence, the figures for `COc1ccc([C@@H](Oc2c(F)cc3c(c2C)OCCC3=O)c2ccncc2)cc1F` (single isomer, unassigned) [Example 97b, (*S)-6-fluoro-7-((3-fluoro-4-methoxyphenyl)(pyridin-4-yl)methoxy)-8-methylchroman-4-one] were 0.38 µM and over 15 µM.
As to `NC(=O)c1ccc([C@H](Oc2ccc3c(c2)OCCC3=O)c2ccncc2)c2ccccc12` (single isomer, unassigned) [Example 98a, (*R)-4-(((4-oxochroman-7-yl)oxy)(pyridin-4-yl)methyl)-1-naphthamide], the half-inhibitory concentration (IC50) against HLA-DRB1*0401 stood at 9 µM; in assay [1] (Mus musculus, T-cell), 5.9 µM.
Take `NC(=O)c1ccc([C@@H](Oc2ccc3c(c2)OCCC3=O)c2ccncc2)c2ccccc12` (single isomer, unassigned) [Example 98b, (*S)-4-(((4-oxochroman-7-yl)oxy)(pyridin-4-yl)methyl)-1-naphthamide]: the 50% inhibitory concentration (IC50) is 10 µM against HLA-DRB1*0401 and over 15 µM in assay [1] (Mus musculus, T-cell).
Regarding `CCc1cc(O[C@H](c2ccncc2)c2ccc(C(N)=O)cc2)cc2c1C(=O)CCO2` (single isomer, unassigned) [Example 99b, (*S)-4-(((5-ethyl-4-oxochroman-7-yl)oxy)(pyridin-4-yl)methyl)benzamide], the half-inhibitory concentration (IC50) was over 89 µM on HLA-DRB1*0401 and 5.5 µM in assay [1] (Mus musculus, T-cell).
Taken in the same sequence, the figures for `COc1c(O[C@@H](c2ccncc2)c2ccc(C(N)=O)cc2)ccc2c1OCCC2=O` (single isomer, unassigned) [Example 100a, (*R)-4-(((8-methoxy-4-oxochroman-7-yl)oxy)(pyridin-4-yl)methyl)benzamide] were 6.4 µM and 7.6 µM.
